How the values were obtained:
[1] = biological target: T1, human μ opiate receptor (Homo sapiens, UniProt P35372); assay: Affinity for the human μ opiate receptor ([3H]-naloxone displacement, CHO-K1 receptor membrane preparation, SPA); type: binding; conditions: test concentration of 1 μM
T1 construct: purchased PerkinElmer Life Sciences, Zaventem, Belgium RB-HOM; host or cells: CHO-K1 cells (membrane preparation)
Summary of the method: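 Displacement of 1 nmol/l [3H]-naloxone measured by SPA counting after 90 min at room temperature, using human μ receptor CHO-K1 membrane preparation in Tris-HCl buffer with 0.06% BSA. Test substances at 1 μmol/l give % inhibition; dilution series yield IC50, then Ki (Cheng-Prusoff); non-specific binding with 100 μmol/l naloxone.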

[2] = biological target: T2, bradykinin 1 receptor (B1R) of the rat (Rattus norvegicus, UniProt P97583); assay: Functional investigation on the rat bradykinin 1 receptor (B1R), Ca2+ FLIPR assay in CHO K1 rB1R cells; type: cell-based; conditions: B1R antagonism rat; test substance 10 μM; Ca2+ FLIPR, CHO K1 rB1R cells
T2 construct: expressed in transfected cells; host or cells: CHO K1 cells
T2 sequence (P97583 1-337): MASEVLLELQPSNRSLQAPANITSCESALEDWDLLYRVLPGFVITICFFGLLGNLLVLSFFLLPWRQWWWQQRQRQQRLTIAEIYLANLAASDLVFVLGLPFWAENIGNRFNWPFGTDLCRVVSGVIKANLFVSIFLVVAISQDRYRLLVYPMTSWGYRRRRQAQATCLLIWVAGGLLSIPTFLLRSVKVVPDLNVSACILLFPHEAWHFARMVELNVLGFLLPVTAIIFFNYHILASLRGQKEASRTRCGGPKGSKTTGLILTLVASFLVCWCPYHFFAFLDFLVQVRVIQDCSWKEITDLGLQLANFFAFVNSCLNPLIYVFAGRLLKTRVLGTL
Summary of the method: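 Fluo-4 Ca2+ readout, peak fluorescence. Stable CHO K1 transfectants; compound pre-incubated 10-20 min, then EC80 agonist—Lys-Des-Arg9-BK for hB1R, Des-Arg9-BK for rB1R. % inhibition vs maximal inhibition; IC50 from multiple concentrations, duplicate/triplicate, ≥2 independent runs.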

T1 sequence (P35372 whole entry): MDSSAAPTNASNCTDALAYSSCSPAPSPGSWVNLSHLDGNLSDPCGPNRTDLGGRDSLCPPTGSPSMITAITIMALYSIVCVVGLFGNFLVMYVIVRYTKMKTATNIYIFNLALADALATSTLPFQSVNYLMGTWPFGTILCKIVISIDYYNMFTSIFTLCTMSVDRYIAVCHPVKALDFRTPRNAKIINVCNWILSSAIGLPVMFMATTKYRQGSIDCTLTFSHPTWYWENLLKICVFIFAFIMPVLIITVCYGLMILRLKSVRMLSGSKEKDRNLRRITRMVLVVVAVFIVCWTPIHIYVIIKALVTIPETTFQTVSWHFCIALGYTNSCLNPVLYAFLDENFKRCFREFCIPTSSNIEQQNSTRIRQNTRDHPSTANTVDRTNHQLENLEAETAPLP

SMILES	μ (binding on the μ opioid receptor, % inhibition) [1] [%]	B1R Ant. r [10 μM] % Inhibition [2] [%]
COc1ccc(S(=O)(=O)N2CCCCC2COCC(=O)NCCC2CCC(C(c3ccc(F)cc3)N(C)C)CC2)c(OC)c1 (stereo not shown) [Example 500]	43	23
Cc1cc(C)c(S(=O)(=O)N2CCC(OCC(=O)NCCC3CCC(C(c4ccc(F)cc4)N(C)C)CC3)C2)c(C)c1 (stereo not shown) [Example 501]	45	38
CN(C)C(c1ccc(F)cc1)C1CCC(NC(=O)COCCN2CCN(S(=O)(=O)c3ccccc3)CC2)CC1 (stereo not shown) [Example 502]	33	21
COc1cc(C)c(S(=O)(=O)N2CCC(OCC(=O)NCC3CCC(C(CCc4ccccc4)N(C)C)CC3)C2)c(C)c1C (stereo not shown) [Example 503]	37	37
COc1cc(C)c(S(=O)(=O)N(CCOCC(=O)NC2CCC(C(c3ccc(F)cc3)N(C)C)CC2)Cc2ccccc2)c(C)c1 (stereo not shown) [Example 504]	43	48
Cc1cc(C)c(S(=O)(=O)N2CCC(OCC(=O)NCCC3CCC(C(c4ccc(Cl)cc4)N(C)C)CC3)C2)c(C)c1 (stereo not shown) [Example 506]	42	23
CN(C)C(c1ccccc1)C1CCC(CNC(=O)COCCC2CCN(S(=O)(=O)c3ccccc3)CC2)CC1 (stereo not shown) [Example 507]	32	3
COc1ccc(S(=O)(=O)N(C)CCOCC(=O)NCC2CCC(C(c3ccc(F)cc3)N(C)C)CC2)cc1 (stereo not shown) [Example 508]	31	42
COc1cc(C)c(S(=O)(=O)N2CCC(OCC(=O)NCCC3CCC(C(c4ccc(F)cc4)N(C)C)CC3)C2)c(C)c1 (stereo not shown) [Example 509]	43	94
COc1cc(C)c(S(=O)(=O)N2CCC(CCOCC(=O)NCCC3CCC(C(c4ccc(F)cc4)N(C)C)CC3)CC2)c(C)c1C (stereo not shown) [Example 510]	33	27
COc1ccc(S(=O)(=O)N2CCCC2COCC(=O)NCC2CCC(C(c3ccc(F)cc3)N(C)C)CC2)cc1 (stereo not shown) [Example 511]	39	17
COc1ccc(S(=O)(=O)N2CCC(OCC(=O)NC3CCC(C(c4ccc(F)cc4)N(C)C)CC3)C2)cc1OC (stereo not shown) [Example 512]	42	38
CN(C)C(CCc1ccccc1)C1CCC(CNC(=O)COCCN(C)S(=O)(=O)c2ccc(Cl)cc2Cl)CC1 (stereo not shown) [Example 513]	38	40
COc1ccc(S(=O)(=O)N(C)CCOCC(=O)NCC2CCC(C(c3ccc(F)cc3)N(C)C)CC2)cc1OC (stereo not shown) [Example 514]	27	22
CN(C)C(CCc1ccccc1)C1CCC(CNC(=O)COCCN(C)S(=O)(=O)c2c(Cl)cc(Cl)cc2Cl)CC1 (stereo not shown) [Example 515]	42	54
CN(C)C(c1ccc(F)cc1)C1CCC(CNC(=O)COC2CCN(S(=O)(=O)c3ccc(Cl)cc3)C2)CC1 (stereo not shown) [Example 517]	40	38
CN(C)C(c1ccc(F)cc1)C1CCC(CCNC(=O)COC2CCN(S(=O)(=O)c3ccc(F)cc3)C2)CC1 (stereo not shown) [Example 518]	35	26
COc1ccc(S(=O)(=O)N(C)CCOCC(=O)NCCC2CCC(C(c3ccc(F)cc3)N(C)C)CC2)cc1 (stereo not shown) [Example 519]	39	44
CN(C)C(c1ccc(F)cc1)C1CCC(CCNC(=O)COC2CCCN(S(=O)(=O)c3ccccc3)C2)CC1 (stereo not shown) [Example 520]	31	24

SMILES	μ (binding on the μ opioid receptor, % inhibition) [1] [%]	B1R Ant. r [10 μM] % Inhibition [2] [%]
COc1cc(C)c(S(=O)(=O)N2CCC(CCOCC(=O)NCC3CCC(C(CCc4ccccc4)N(C)C)CC3)CC2)c(C)c1C (stereo not shown) [Example 521]	39	11
CN(C)C(c1ccc(F)cc1)C1CCC(CNC(=O)COC2CCN(S(=O)(=O)c3ccc(F)cc3)C2)CC1 (stereo not shown) [Example 522]	35	12
COc1cc(C)c(S(=O)(=O)N(CCOCC(=O)NC2CCC(C(c3ccc(F)cc3)N(C)C)CC2)Cc2ccccc2)c(C)c1C (stereo not shown) [Example 523]	34	26
COc1ccc(S(=O)(=O)N2CCCCC2COCC(=O)NC2CCC(C(c3ccc(F)cc3)N(C)C)CC2)c(OC)c1 (stereo not shown) [Example 524]	33	26
COc1cc(C)c(S(=O)(=O)N(C)CCOCC(=O)NCC2CCC(C(CCc3ccccc3)N(C)C)CC2)c(C)c1 (stereo not shown) [Example 525]	31	93
CN(C)C(CCc1ccccc1)C1CCC(CNC(=O)COCCN2CCN(S(=O)(=O)c3ccccc3)CC2)CC1 (stereo not shown) [Example 526]	32	−30
COc1cc(C)c(S(=O)(=O)N2CCC(OCC(=O)NCC3CCC(C(c4ccc(F)cc4)N(C)C)CC3)CC2)c(C)c1C (stereo not shown) [Example 527]	38	68
COc1cc(C)c(S(=O)(=O)N2CCN(CCOCC(=O)NCC3CCC(C(CCc4ccccc4)N(C)C)CC3)CC2)c(C)c1C (stereo not shown) [Example 528]	34	14
CN(C)C(c1ccc(F)cc1)C1CCC(CCNC(=O)COC2CCN(S(=O)(=O)c3ccccc3)C2)CC1 (stereo not shown) [Example 530]	26	27
CN(C)C(c1ccc(Cl)cc1)C1CCC(CCNC(=O)COCCC2CCN(S(=O)(=O)c3ccccc3)CC2)CC1 (stereo not shown) [Example 531]	23	−1
CN(C)C(c1ccc(F)cc1)C1CCC(CNC(=O)COC2CCN(S(=O)(=O)c3ccccc3)C2)CC1 (stereo not shown) [Example 532]	35	−14
CN(C)C(CCc1ccccc1)C1CCC(CNC(=O)COCCN(Cc2ccccc2)S(=O)(=O)c2ccccc2)CC1 (stereo not shown) [Example 533]	28	12
COc1ccc(S(=O)(=O)N2CCCCC2CCOCC(=O)NCC2CCC(C(CCc3ccccc3)N(C)C)CC2)cc1 (stereo not shown) [Example 535]	34	72
CCN(CCOCC(=O)NCC1CCC(C(CCc2ccccc2)N(C)C)CC1)S(=O)(=O)c1c(C)cc(OC)c(C)c1C (stereo not shown) [Example 536]	43	95
Cc1ccc(S(=O)(=O)N2CCC(OCC(=O)NCC3CCC(C(CCc4ccccc4)N(C)C)CC3)C2)cc1 (stereo not shown) [Example 538]	25	5
CN(C)C(CCc1ccccc1)C1CCC(CNC(=O)COCCN(C)S(=O)(=O)c2ccc(F)cc2)CC1 (stereo not shown) [Example 539]	32	32
COc1ccc(S(=O)(=O)N2CCCCC2COCC(=O)NCCC2CCC(C(c3ccc(Cl)cc3)N(C)C)CC2)cc1OC (stereo not shown) [Example 540]	23	19
COc1cc(C)c(S(=O)(=O)N2CCC(OCC(=O)NCC3CCC(C(c4ccc(F)cc4)N(C)C)CC3)C2)c(C)c1 (stereo not shown) [Example 541]	34	104
COc1cc(C)c(S(=O)(=O)N(CCOCC(=O)NCC2CCC(C(CCc3ccccc3)N(C)C)CC2)Cc2ccccc2)c(C)c1 (stereo not shown) [Example 542]	33	45

Reference: patent US8106055B2, “Substituted amide compounds” (Gruenenthal GmbH, priority 2007, dated 2012)
